Measurements reported in PMC5042751 (Molecular Medicine Reports, 2016).

How the values were obtained:
Assay type in all cases: in vivo, rats
[1] = tested on: Ugt1a1; assay: Intestinal and hepatic mRNA expression by RT-qPCR
[2] = tested on: Slco2b1; assay: Intestinal mRNA expression by RT-qPCR; conditions: rat small intestine
[3] = tested on: Slco1b2; assay: Hepatic mRNA expression by RT-qPCR; conditions: rat liver
[4] = tested on: Bcrp; assay: Intestinal and hepatic mRNA expression by RT-qPCR
[5] = tested on: Mrp2; assay: Intestinal and hepatic mRNA expression by RT-qPCR
[6] = tested on: Ugt1a1; assay: Intestinal and hepatic protein expression by western blotting
[7] = tested on: OATP2B1; assay: Intestinal protein expression by western blotting; conditions: rat small intestine
[8] = tested on: OATP1B2; assay: Hepatic protein expression by western blotting; conditions: rat liver
[9] = tested on: Bcrp; assay: Intestinal and hepatic protein expression by western blotting; conditions: rat liver
[10] = rat liver, Que 25 mg/kg oral 7 days without CsA (Que-WOC) vs control
[11] = rat liver, Que 25 mg/kg with CsA 10 mg/kg oral 7 days (Que-WC) vs CsA alone
[12] = rat liver, Que 50 mg/kg oral 7 days without CsA (Que-WOC) vs control
[13] = rat liver, Que 50 mg/kg with CsA 10 mg/kg oral 7 days (Que-WC) vs CsA alone
[14] = rat liver, Que 100 mg/kg oral 7 days without CsA (Que-WOC) vs control
[15] = rat liver, Que 100 mg/kg with CsA 10 mg/kg oral 7 days (Que-WC) vs CsA alone
[16] = rat small intestine, Que 25 mg/kg oral 7 days without CsA (Que-WOC) vs control
[17] = rat small intestine, Que 50 mg/kg oral 7 days without CsA (Que-WOC) vs control
[18] = rat small intestine, Que 100 mg/kg oral 7 days without CsA (Que-WOC) vs control
[19] = Que 25 mg/kg oral 7 days without CsA (Que-WOC) vs control
[20] = Que 50 mg/kg oral 7 days without CsA (Que-WOC) vs control
[21] = Que 100 mg/kg oral 7 days without CsA (Que-WOC) vs control
[22] = Que 50 mg/kg with CsA 10 mg/kg oral 7 days (Que-WC) vs CsA treatment
[23] = Que 100 mg/kg with CsA 10 mg/kg oral 7 days (Que-WC) vs CsA treatment

## O=c1c(O)c(-c2ccc(O)c(O)c2)oc2cc(O)cc(O)c12 [Que, 3,3′,4′,5,7-pentahydroxyflavone]
[1]; [10]
  decrease in mRNA expression of Ugt1a1: 41%
[1]; [11]
  decrease in mRNA expression level of Ugt1a1: 28%
[1]; [12]
  decrease in mRNA expression of Ugt1a1: 81%
[1]; [13]
  decrease in mRNA expression level of Ugt1a1: 71%
[1]; [14]
  decrease in mRNA expression of Ugt1a1: 92%
[1]; [15]
  decrease in mRNA expression level of Ugt1a1: 92%
[1]; [16]
  decrease in mRNA expression of Ugt1a1: 20%
[1]; [17]
  decrease in mRNA expression of Ugt1a1: 76%
[1]; [18]
  decrease in mRNA expression of Ugt1a1: 84%
[2]; [19]
  decrease in mRNA expression level of Slco2b1: 84%
[2]; [20]
  decrease in mRNA expression level of Slco2b1: 92%
[2]; [21]
  decrease in mRNA expression level of Slco2b1: 97%
[3]; [19]
  decrease in mRNA expression level of Slco1b2: 79%
[3]; Que 25 mg/kg with CsA 10 mg/kg oral 7 days (Que-WC) vs CsA treatment
  decrease in mRNA expression level of Slco1b2: 72%
[3]; [20]
  decrease in mRNA expression level of Slco1b2: 92%
[3]; [22]
  decrease in mRNA expression level of Slco1b2: 90%
[3]; [21]
  decrease in mRNA expression level of Slco1b2: 95%
[3]; [23]
  decrease in mRNA expression level of Slco1b2: 94%
[4]; [10]
  decrease in mRNA expression level of Bcrp: 55%
[4]; [11]
  decrease in mRNA expression level of Bcrp: 68%
[4]; [12]
  decrease in mRNA expression level of Bcrp: 77%
[4]; [13]
  decrease in mRNA expression level of Bcrp: 77%
[4]; [14]
  decrease in mRNA expression level of Bcrp: 88%
[4]; [15]
  decrease in mRNA expression level of Bcrp: 89%
[4]; [16]
  decrease in mRNA expression level of Bcrp: 46%
[4]; [17]
  decrease in mRNA expression level of Bcrp: 70%
[4]; [18]
  decrease in mRNA expression level of Bcrp: 92%
[5]; [10]
  decrease in mRNA expression level of Mrp2: 45%
[5]; [11]
  decrease in mRNA expression level of Mrp2: 38%
[5]; [12]
  decrease in mRNA expression level of Mrp2: 52%
[5]; [13]
  decrease in mRNA expression level of Mrp2: 36%
[5]; [14]
  decrease in mRNA expression level of Mrp2: 98%
[5]; [15]
  decrease in mRNA expression level of Mrp2: 99%
[5]; [16]
  decrease in mRNA expression level of Mrp2: 45%
[5]; [17]
  decrease in mRNA expression level of Mrp2: 69%
[5]; [18]
  decrease in mRNA expression level of Mrp2: 96%
[6]; [10]
  decrease in protein expression level of UGT1A1: 16%
[6]; [11]
  change in protein expression level of UGT1A1: did not produce significant effects
[6]; [12]
  decrease in protein expression level of UGT1A1: 42%
[6]; [13]
  change in protein expression level of UGT1A1: did not produce significant effects
[6]; [14]
  decrease in protein expression level of UGT1A1: 87%
[6]; [15]
  decrease in protein expression level of UGT1A1: 72%
[6]; [16]
  decrease in protein expression level of UGT1A1: 12%
[6]; [17]
  decrease in protein expression level of UGT1A1: 41%
[6]; [18]
  decrease in protein expression level of UGT1A1: 91%
[7]; [19]
  change in protein expression level of OATP2B1: did not produce a significant effect
[7]; [20]
  decrease in protein expression level of OATP2B1: 43%
[7]; [21]
  decrease in protein expression level of OATP2B1: 76%
[8]; [19]
  change in protein expression level of OATP1B2: did not produce a significant effect
[8]; [20]
  decrease in protein expression level of OATP1B2: 48%
[8]; [22]
  decrease in protein expression level of OATP1B2: 38%
[8]; [21]
  decrease in protein expression level of OATP1B2: 86%
[8]; [23]
  decrease in protein expression level of OATP1B2: 72%
[9]; [19]
  decrease in protein expression level of BCRP: 7%
[9]; Que 25 mg/kg with CsA 10 mg/kg oral 7 days (Que-WC) vs CsA alone
  decrease in protein expression level of BCRP: 23%
[9]; [20]
  decrease in protein expression level of BCRP: 27%
[9]; Que 50 mg/kg with CsA 10 mg/kg oral 7 days (Que-WC) vs CsA alone
  decrease in protein expression level of BCRP: 31%
[9]; [21]
  decrease in protein expression level of BCRP: 75%
[9]; Que 100 mg/kg with CsA 10 mg/kg oral 7 days (Que-WC) vs CsA alone
  decrease in protein expression level of BCRP: 67%
